Measured values: publication PMC3006138, “Fexinidazole – A New Oral Nitroimidazole Drug Candidate Entering Clinical Development for the Treatment of Sleeping Sickness” (PLoS Neglected Tropical Diseases, 2010)
Where “and” joins values, the source holds several entries; their conditions need not be identical. Identical values can stand only once.

Experiment: Whole-body autoradiography
Format: in vivo, rat
Protocol: Whole-body autoradiography in rats was conducted using [^14C]-radiolabelled fexinidazole. The site of the [^14C] label in the fexinidazole molecule on the bridging carbon atom ensured that the radioactivity would remain associated with both the sulfoxide and sulfone metabolites. The radiolabelled compound was administered at the dose of 800 mg/kg (approximately 3.7 MBq/kg, 100 µCi/kg) by gastric gavage to eight male albino Sprague Dawley rats. Two animals were sacrificed at each time point 2, 8, 24 or 48 h after administration and the quantitative radioactivity distribution in the organs and tissues was evaluated using quantitative whole-body autoradiography. […]
This study was conducted according to Protocol N° 0510-2007. A copy of the experimental protocol is included in Appendix 1.
FEXINIDAZOLE is a 5-nitroimidazole derivative biologically active against Trypanosoma parasites (T.b. rhodesiense and T.b. brucei) and useful in the treatment of the Human African Trypanosomiasis (HAT), known as sleeping sickness.
FEXINIDAZOLE is a compound currently under development by the Study Sponsor.
The objective of this study was to obtain information on the tissue distribution of radioactive drug-related material following oral administration of [14C]-FEXINIDAZOLE (800 mg/kg) to male Sprague Dawley rats.
The albino Sprague Dawley rat was chosen as the species for this study since it was one of the species used in the toxicological evaluation of the test compound. Only male animals were used as no gender differences were expected with respect to the aim of the study. The oral route of administration was chosen as this is the intended therapeutic route. The dose level was selected in agreement with the Study Sponsor and it is within the pharmacological relevant range. No overt toxicity was expected after single dosing at […]
The study was conducted on 8 male animals after single oral administration of [14C]- FEXINIDAZOLE (800 mg/kg, approximately 3.7 MBq/kg, 100 µCi/kg). The animals were sacrificed at 2, 8,24 and 48 hours after administration and each rat was analyzed by a validated Whole Body Autoradioluminography (WBA) method, in order to evaluate the quantitative tissue distribution of radioactivity.
A summary of the experimental design is reported below:
Animal no. Date of Dosing Administered Dose Samples collected and (oral administration) analyzed
M3, M4 100 µCi/kg Whole body sections
The experimental phase of the study started on June 10, 2008 and was completed on July […]
6.6. Preparation and Analysis of Dose Formulation
The test formulation was prepared on the day of dosing by suspending unlabelled FEXINIDAZOLE and [14C]-FEXINIDAZOLE (see section 6.1) in 5% Tween 80 and 0.5% Methyl cellulose 400 cP (Methocel) in water, in order to obtain [14C]- FEXINIDAZOLE at the final target concentration of 80 mg/mL, corresponding to a radioactivity concentration of about 370 kBq/mL (10 µCi/mL).
The test formulation was prepared by suspending an appropriate amount of unlabelled FEXINIDAZOLE in the dose vehicle. This formulation was homogenised using a Potter-Elvehjem homogenizer apparatus (teflon pestle of approx. 30 mm x 53 mm and glass tube of 40 mL), in order to obtain a fine suspension by up-and-down strokes, gently made by hand. The formulation was then collected and transferred from the homogeniser glass tube to the glass pot containing the [14C]-FEXINIDAZOLE.
During the preparation the test formulation was protected from light as far as possible.
The radioactivity concentration and homogeneity of the test formulation were determined, before administration, by liquid scintillation counting of triplicate weighed aliquots of test formulation. The radiolabelled test formulation was used immediately after formulation.
6.7.1. Administered Doses
The dose of [14C]-FEXINIDAZOLE was orally administered by gastric gavage at the target dose level of 800 mg/kg (radioactivity dose of about 3.7 MBq/kg, 100 µCi/kg) and at a target dose volume of about 10 mL/kg. […]

CSc1ccc(OCc2ncc([N+](=O)[O-])n2C)cc1 [Fexinidazole, 1-methyl-2-((p-(methylthio)phenoxy)methyl)-5-nitroimidazole]
brain-to-blood concentration ratio of radioactivity (800 mg/kg po, all times): 0.4–0.6 | Mean radioactivity concentration (Blood, 2h): 303.2 µgeq/g | Mean radioactivity concentration (Blood, 8h): 273.0 µgeq/g | Mean radioactivity concentration (Blood, 24h): 51.3 µgeq/g | Mean radioactivity concentration (Blood, 48h): 14.3 µgeq/g | Mean radioactivity concentration (Brain, 2h): 159.7 µgeq/g | Mean radioactivity concentration (Brain, 8h): 148.5 µgeq/g | Mean radioactivity concentration (Brain, 24h): 22.4 µgeq/g | Mean radioactivity concentration (Brain, 48h): 5.7 µgeq/g | Radioactivity concentration (Intestine wall, 2h, listed as [14C]-FEXINIDAZOLE): 4900 - 5600 µgeq/g and 5281.4 µgeq/g
